Data published in US20180282275A1, “New alkynyl-substituted 3-phenylpyrrolidine-2,4-diones and use thereof as herbicides” (Bayer CropScience Aktiengesellschaft, priority 2015, published 2018).

Assays:
Type in all cases: in vivo
Alopecurus myosuroides [1] = experiment: Pre-emergence herbicidal effect, greenhouse pot test; conditions: 504 h, 320 g a.i./ha, visual score after 3 weeks, 100% = plants have died, 0% = like control, read-out: Herbicidal effect against [%] ALOMY
Source text: (§1) Seeds of monocotyledonous and dicotyledonous weed plants and crop plants are laid out in wood-fibre pots in sandy loam and covered with soil. The compounds according to the invention formulated in the form of wettable powders (WP) or as emulsion concentrates (EC) are then applied as aqueous suspension or emulsion at a water application rate of 600 to 800 l/ha (converted) with the addition of 0.2% wetting agent to the surface of the covering soil. After the treatment, the pots are placed in a greenhouse and kept under good growth conditions for the trial plants. The damage to the test plants is scored visually after a test period of 3 weeks by comparison with untreated controls (herbicidal activity in percent (%): 100% activity=the plants have died, 0% activity=like control plants). [table]

Cyperus esculentus = experiment: as above; conditions: 320 g a.i./ha, visual score after 3 weeks, 100% = plants have died, 0% = like control
Source text: as §1

Echinochloa crus-galli [2] = experiment: as above; conditions: 504 h, 320 g a.i./ha, visual score after 3 weeks, 100% = plants have died, 0% = like control, read-out: Herbicidal effect against [%] ECHCG
Source text: as §1

Hordeum murinum [3] = experiment: as above; conditions: 320 g a.i./ha, visual score after 3 weeks, 100% = plants have died, 0% = like control
Source text: as §1

Lolium rigidium [4] = experiment: as above; conditions: 320 g a.i./ha, visual score after 3 weeks, 100% = plants have died, 0% = like control
Source text: as §1

Setaria viridis [5] = experiment: as above; conditions: 504 h, 320 g a.i./ha, visual score after 3 weeks, 100% = plants have died, 0% = like control, read-out: Herbicidal effect against [%] SETVI
Source text: as §1

Alopecurus myosuroides [6] = experiment: Post-emergence herbicidal effect, greenhouse pot test; conditions: 504 h, 80 g a.i./ha, one-leaf stage, visual score after about 3 weeks, 100% = plants have died, read-out: Herbicidal effect against [%] ALOMY
Protocol: (§2) [table] Seeds of monocotyledonous and dicotyledonous weed and crop plants are laid out in sandy loam in wood-fibre pots, covered with soil and cultivated in a greenhouse under good growth conditions. 2 to 3 weeks after sowing, the test plants are treated at the one-leaf stage. The compounds according to the invention, formulated in the form of wettable powders (WP) or as emulsion concentrates (EC), are then sprayed as aqueous suspension or emulsion at a water application rate of 600 to 800 l/ha (converted) with the addition of 0.2% of wetting agent onto the green parts of the plants. After the test plants have been left to stand in the greenhouse under optimal growth conditions for about 3 weeks, the action of the preparations is assessed visually in comparison to untreated controls (herbicidal action in percent (%): 100% activity=the plants have died, 0% activity=like control plants).

Avena fatua [7] = experiment: as above; conditions: 80 g a.i./ha, one-leaf stage, visual score after about 3 weeks, 100% = plants have died
Protocol: as §2

Echinochloa crus-galli [8] = experiment: as above; conditions: 504 h, 80 g a.i./ha, one-leaf stage, visual score after about 3 weeks, 100% = plants have died, read-out: Herbicidal effect against [%] ECHCG
Protocol: as §2

Hordeum murinum [9] = experiment: as above; conditions: 80 g a.i./ha, one-leaf stage, visual score after about 3 weeks, 100% = plants have died
Protocol: as §2

Lolium rigidium [10] = experiment: as above; conditions: 80 g a.i./ha, one-leaf stage, visual score after about 3 weeks, 100% = plants have died
Protocol: as §2

Setaria viridis [11] = experiment: as above; conditions: 504 h, 80 g a.i./ha, one-leaf stage, visual score after about 3 weeks, 100% = plants have died, read-out: Herbicidal effect against [%] SETVI
Protocol: as §2

Stellaria media = experiment: as above; conditions: 80 g a.i./ha, one-leaf stage, visual score after about 3 weeks, 100% = plants have died
Protocol: as §2

Avena fatua [12] = experiment: Pre-emergence herbicidal effect, greenhouse pot test; conditions: 504 h, 320 g a.i./ha, visual score after 3 weeks, 100% = plants have died, 0% = like control, read-out: Herbicidal effect against [%] AVEFA
Source text: as §1

Lolium multiflorum = experiment: as above; conditions: 320 g a.i./ha, visual score after 3 weeks, 100% = plants have died, 0% = like control
Source text: as §1

For `CC#Cc1cc(C)c(C2=C(O)C3(CCC(OCC)CC3)NC2=O)c(C)c1` (stereo not drawn) [Example D6], the pest or weed control at 320 g/ha (Alopecurus myosuroides [1]) was 80 to 100%, the “Herbicidal effect against [%] CYPES” value (Cyperus esculentus) was 100% and the pest or weed control at 320 g/ha (Echinochloa crus-galli [2]) was 80 to 100%. The “Herbicidal effect against [%] HORMU” value (Hordeum murinum [3]) was 100%, the “Herbicidal effect against [%] LOLRI” value (Lolium rigidium [4]) was 100% and the pest or weed control at 320 g/ha (Setaria viridis [5]) was 80 to 100%. For the same molecule, the pest or weed control at 80 g/ha (Alopecurus myosuroides [6]) was 80 to 100%, the “Herbicidal effect against [%] AVEFA” value (Avena fatua [7]) was 100% and the pest or weed control at 80 g/ha (Echinochloa crus-galli [8]) was 80 to 100%. The “Herbicidal effect against [%] HORMU” value (Hordeum murinum [9]) was 100%, the “Herbicidal effect against [%] LOLRI” value (Lolium rigidium [10]) was 100% and the pest or weed control at 80 g/ha (Setaria viridis [11]) was 80 to 100%. For the same molecule, the “Herbicidal effect against [%] STEME” value (Stellaria media) was 90%.

`CC#Cc1cc(C)c(C2=C(OC(=O)OCC)C3(CCC(OCC)CC3)NC2=O)c(C)c1` (single isomer, unassigned) [Example P5] was tested, and the pest or weed control at 320 g/ha (Alopecurus myosuroides [1]) was 80 to 100%, the pest or weed control at 320 g/ha (Avena fatua [12]) was 80 to 100% and the “Herbicidal effect against [%] CYPES” value (Cyperus esculentus) was 100%. The pest or weed control at 320 g/ha (Echinochloa crus-galli [2]) was 80 to 100%, the “Herbicidal effect against [%] HORMU” value (Hordeum murinum [3]) was 100% and the “Herbicidal effect against [%] LOLRI” value (Lolium rigidium [4]) was 100%. For the same molecule, the pest or weed control at 320 g/ha (Setaria viridis [5]) was 80 to 100%, the pest or weed control at 80 g/ha (Alopecurus myosuroides [6]) was 80 to 100% and the “Herbicidal effect against [%] AVEFA” value (Avena fatua [7]) was 100%. The pest or weed control at 80 g/ha (Echinochloa crus-galli [8]) was 80 to 100%, the “Herbicidal effect against [%] HORMU” value (Hordeum murinum [9]) was 100% and the “Herbicidal effect against [%] LOLRI” value (Lolium rigidium [10]) was 100%. For the same molecule, the pest or weed control at 80 g/ha (Setaria viridis [11]) was 80 to 100% and the “Herbicidal effect against [%] STEME” value (Stellaria media) was 100%.

In the case of `CC#Cc1cc(C)c(C2=C(OC(=O)OCC)C3(CCC(OCC)CC3)NC2=O)c(C)c1` (single isomer, unassigned) [Example P6], the “Herbicidal effect against [%] CYPES” value (Cyperus esculentus) is reported as 90%, the “Herbicidal effect against [%] HORMU” value (Hordeum murinum [3]) is reported as 90% and the “Herbicidal effect against [%] LOLRI” value (Lolium rigidium [4]) is reported as 100%. The “Herbicidal effect against [%] AVEFA” value (Avena fatua [7]) was 90%, the “Herbicidal effect against [%] HORMU” value (Hordeum murinum [9]) was 80% and the “Herbicidal effect against [%] LOLRI” value (Lolium rigidium [10]) was 100%. The “Herbicidal effect against [%] STEME” value (Stellaria media) was 20%.

With `CC#Cc1cc(C)c(C2=C(OC(=O)OC)C3(CCC(OCC)CC3)NC2=O)c(C)c1` (stereo not drawn) [Example P7] the pest or weed control at 320 g/ha (Alopecurus myosuroides [1]) was 80 to 100%, the pest or weed control at 320 g/ha (Avena fatua [12]) was 80 to 100% and the “Herbicidal effect against [%] CYPES” value (Cyperus esculentus) was 100%. The pest or weed control at 320 g/ha (Echinochloa crus-galli [2]) was 80 to 100%, the “Herbicidal effect against [%] HORMU” value (Hordeum murinum [3]) was 100% and the “Herbicidal effect against [%] LOLRI” value (Lolium rigidium [4]) was 100%. For the same molecule, the pest or weed control at 320 g/ha (Setaria viridis [5]) was 80 to 100%, the pest or weed control at 80 g/ha (Alopecurus myosuroides [6]) was 80 to 100% and the “Herbicidal effect against [%] AVEFA” value (Avena fatua [7]) was 100%. For the same molecule, the pest or weed control at 80 g/ha (Echinochloa crus-galli [8]) was 80 to 100%, the “Herbicidal effect against [%] HORMU” value (Hordeum murinum [9]) was 100% and the “Herbicidal effect against [%] LOLRI” value (Lolium rigidium [10]) was 100%. For the same molecule, the pest or weed control at 80 g/ha (Setaria viridis [11]) was 80 to 100% and the “Herbicidal effect against [%] STEME” value (Stellaria media) was 100%.

In the case of `CC#Cc1cc(C)c(C2=C(O)C3(CCC(OCC)CC3)NC2=O)c(CC)c1` (stereo not drawn) [Example S4], the “Herbicidal effect against [%] CYPES” value (Cyperus esculentus) is reported as 60%, the “Herbicidal effect against [%] HORMU” value (Hordeum murinum [3]) is reported as 100% and the “Herbicidal effect against [%] LOLRI” value (Lolium rigidium [4]) is reported as 100%. For the same molecule, the “Herbicidal effect against [%] AVEFA” value (Avena fatua [7]) was 100%, the “Herbicidal effect against [%] HORMU” value (Hordeum murinum [9]) was 100% and the “Herbicidal effect against [%] LOLRI” value (Lolium rigidium [10]) was 100%. For the same molecule, the “Herbicidal effect against [%] STEME” value (Stellaria media) was 10%.

In the case of `COC1CCC2(CC1)NC(=O)C(c1c(C)cc(C#CC3CC3)cc1C)=C2O` (stereo not drawn) [Example D11, cis-3-[4-(Cyclopropylethynyl)-2,6-dimethylphenyl]-4-hydroxy-8-methoxy-1-azaspiro[4.5]dec-3-en-2-one], the pest or weed control at 320 g/ha (Alopecurus myosuroides [1]) is reported as 80 to 100%, the pest or weed control at 320 g/ha (Avena fatua [12]) is reported as 80 to 100% and the pest or weed control at 320 g/ha (Echinochloa crus-galli [2]) is reported as 80 to 100%. For the same molecule, the “Herbicidal effect against [%] LOLMU” value (Lolium multiflorum) was 100%, the pest or weed control at 320 g/ha (Setaria viridis [5]) was 80 to 100% and the pest or weed control at 80 g/ha (Alopecurus myosuroides [6]) was 90 to 100%. For the same molecule, the pest or weed control at 80 g/ha (Echinochloa crus-galli [8]) was 90 to 100% and the pest or weed control at 80 g/ha (Setaria viridis [11]) was 90 to 100%.

`CC#Cc1cc(C)c(C2=C(OC(=O)OCC)C3(CCC(OCC)CC3)NC2=O)c(CC)c1` (stereo not drawn) [Example P9] was tested, and the “Herbicidal effect against [%] CYPES” value (Cyperus esculentus) was 60%, the “Herbicidal effect against [%] HORMU” value (Hordeum murinum [3]) was 100% and the “Herbicidal effect against [%] LOLRI” value (Lolium rigidium [4]) was 100%. The “Herbicidal effect against [%] AVEFA” value (Avena fatua [7]) was 100%, the “Herbicidal effect against [%] HORMU” value (Hordeum murinum [9]) was 100% and the “Herbicidal effect against [%] LOLRI” value (Lolium rigidium [10]) was 100%. The “Herbicidal effect against [%] STEME” value (Stellaria media) was 40%.

With `CCc1cc(C#CC2CC2)cc(C)c1C1=C(O)C2(CCC(OC)CC2)NC1=O` (stereo not drawn) [Example D10] the pest or weed control at 320 g/ha (Alopecurus myosuroides [1]) was 80 to 100%, the pest or weed control at 320 g/ha (Avena fatua [12]) was 80 to 100% and the pest or weed control at 320 g/ha (Echinochloa crus-galli [2]) was 80 to 100%. For the same molecule, the “Herbicidal effect against [%] LOLMU” value (Lolium multiflorum) was 100%, the pest or weed control at 320 g/ha (Setaria viridis [5]) was 80 to 100% and the pest or weed control at 80 g/ha (Alopecurus myosuroides [6]) was 90 to 100%. It also gave a pest or weed control at 80 g/ha (Echinochloa crus-galli [8]) of 90 to 100% and a pest or weed control at 80 g/ha (Setaria viridis [11]) of 90 to 100%.
